Results from US4285941A, “Cephalosporin compounds and antibacterial drugs containing the same” (Eisai Co., Ltd., priority 1979, dated 1981).

Tests used:
Test in all cases: Minimal inhibitory concentration (MIC), standard agar dilution method
Format in all cases: cell-based
Escherichia coli NIHJ = conditions: Mueller Hinton agar, 37° C., 18 hours, Examples 1, 2, 4, 5, 6, 8 and 22 as sodium salts, others as free carboxylic acids
Method: (§1) The compounds obtained in these examples were tested for their antibacterial activities in vitro. Minimal inhibitory concentration (MIC) was determined by the standard agar dilution method of the Japan Society of Chemotherapy. Compounds were dissolved in appropriate solvents (sterilized water for sodium salts and acetone-water [1:1] for free acids) and serial two-fold dilutions were made. Sodium salt of Cefazolin was chosen as the control compound. One-ml aliquots of each dilution were mixed with 9 ml of Mueller Hinton agar in petri-dishes to make agar plates containing the compound at serially diluted concentrations. After agar hardened, plates were put in an incubator at 37° C. for 1.5-2 hours with the lids slightly open to evaporate acetone off the plates. Test organisms were grown for 18 hours at 37° C. in Trypticase Soy broth and diluted in saline to approximately 10^6 colony forming units per ml. A loopful of each cell suspension was applied on the agar plate mentioned above and the plates were incubated for 18 hours at 37° C. before MIC was determined. MIC values of the compounds of Examples 1, 2, 4, 5, 6, 8 and 22 were determined as their sodium salts and those of other compounds as free carboxylic acids.

[1] = tested on: Klebsiella pneumoniae EK-6; conditions: EK6, Mueller Hinton agar, 37° C., 18 hours, Examples 1, 2, 4, 5, 6, 8 and 22 as sodium salts, others as free carboxylic acids
Method: as §1

Proteus morganii EP-14 = conditions: Morganella morganii, EP14; Mueller Hinton agar, 37° C., 18 hours; Examples 1, 2, 4, 5, 6, 8 and 22 as sodium salts, others as free carboxylic acids
Method: as §1

[2] = tested on: Pseudomonas aeruginosa EP-172; conditions: EP172, Mueller Hinton agar, 37° C., 18 hours, Examples 1, 2, 4, 5, 6, 8 and 22 as sodium salts, others as free carboxylic acids
Method: as §1

[3] = tested on: Serratia marcescens ES-75; conditions: ES75, Mueller Hinton agar, 37° C., 18 hours, Examples 1, 2, 4, 5, 6, 8 and 22 as sodium salts, others as free carboxylic acids
Method: as §1

[4] = tested on: Staphylococcus aureus 209-P; conditions: Mueller Hinton agar, 37° C., 18 hours, Examples 1, 2, 4, 5, 6, 8 and 22 as sodium salts, others as free carboxylic acids
Method: as §1

MIC (Escherichia coli NIHJ) [µg/mL] | MIC [1] [µg/mL] | MIC (Proteus morganii EP-14) [µg/mL] | MIC [2] [µg/mL] | MIC [3] [µg/mL] | MIC [4] [µg/mL] | Compound
0.8 | ≤ 0.1 | 0.8 | 3.13 | ≤ 0.1 | 1.56 | Cc1nnc(SCC2=C(C(=O)O)N3C(=O)[C@@H](NC(=O)[C@H](NC(=O)c4coc5cc(O)c(O)cc5c4=O)c4ccccc4)[C@H]3SC2)s1 [Example 2, 7β-[D-2-(6,7-Dihydroxychromone-3-carboxamido)-2-phenyl-acetamido]-3-[(5-methyl-1,3,4-thiadiazol-2-yl)thiomethyl]-3-cephem-4-carboxylic acid]
0.2 | ≤ 0.1 | 0.4 | 0.4 | ≤ 0.1 | 0.8 | Cn1nnnc1SCC1=C(C(=O)O)N2C(=O)[C@@H](NC(=O)[C@H](NC(=O)c3coc4cc(O)c(O)cc4c3=O)c3ccc(O)cc3)[C@H]2SC1 [Example 3, 7β-[D-2-(6,7-Dihydroxychromone-3-carboxamido)-2-(4-hydroxyphenyl)acetamido]-3-[(1-methyltetrazol-5-yl)thiomethyl]-3-cephem-4-carboxylic acid]
1.56 | ≤ 0.1 | 12.5 | 6.25 | 3.13 | 0.8 | Cn1nnnc1SCC1=C(C(=O)O)N2C(=O)[C@@H](NC(=O)[C@H](NC(=O)c3coc4c(O)c(O)ccc4c3=O)c3ccc(O)cc3)[C@H]2SC1 [Example 9, 7β-[D-2-(7,8-Dihydroxychromone-3-carboxamido)-2-(4-hydroxyphenyl)acetamido]-3-[(1-methyltetrazol-5-yl)thiomethyl]-3-cephem-4-carboxylic acid]
6.25 | 12.5 | 25 | 50 | 12.5 | 0.4 | Cn1nnnc1SCC1=C(C(=O)O)N2C(=O)[C@@H](NC(=O)[C@H](NC(=O)c3coc4cc(O)ccc4c3=O)c3ccc(O)cc3)[C@H]2SC1 [Example 13, 7β-[D-2-(7-Hydroxychromone-3-carboxamido)-2-(4-hydroxyphenyl)acetamido]-3-[(1-methyltetrazol-5-yl)thiomethyl]-3-cephem-4-carboxylic acid]
6.25 | 12.5 | 25 | 100 | 25 | 0.4 | Cn1nnnc1SCC1=C(C(=O)O)N2C(=O)[C@@H](NC(=O)[C@H](NC(=O)c3coc4ccccc4c3=O)c3ccc(O)cc3)[C@H]2SC1 [Example 15, 7β-[D-2-(Chromone-3-carboxamido)-2-(4-hydroxyphenyl)acetamido]-3-[(1-methyltetrazol-5-yl)thiomethyl]-3-cephem-4-carboxylic acid]
6.25 | 6.25 | 6.25 | 25 | 3.13 | ≤ 0.1 | Cn1nnnc1SCC1=C(C(=O)O)N2C(=O)[C@@H](NC(=O)[C@H](NC(=O)c3coc4ccccc4c3=O)c3ccccc3)[C@H]2SC1 [Example 16, 7β-[D-2-(Chromone-3-carboxamido)-2-phenylacetamido]-3-[(1-methyltetrazol-5-yl)thiomethyl]-3-cephem-4-carboxylic acid]
0.4 | ≤ 0.1 | 12.5 | 0.4 | 0.2 | 0.8 | O=C(O)C1=C(CSc2nncs2)CS[C@@H]2[C@H](NC(=O)[C@H](NC(=O)c3coc4cc(O)c(O)cc4c3=O)c3ccc(O)cc3)C(=O)N12 [Example 19, 7β-[D-2-(6,7-Dihydroxychromone-3-carboxamido)-2-(4-hydroxyphenyl)acetamido]-3-[(1,3,4-thiadiazol-2-yl)thiomethyl]-3-cephem-4-carboxylic acid]
0.2 | ≤ 0.1 | 3.13 | 0.2 | ≤ 0.1 | 0.8 | CCn1nnnc1SCC1=C(C(=O)O)N2C(=O)[C@@H](NC(=O)[C@H](NC(=O)c3coc4cc(O)c(O)cc4c3=O)c3ccc(O)cc3)[C@H]2SC1 [Example 20, 7β-[D-2-(6,7-Dihydroxychromone-3-carboxamido)-2-(4-hydroxyphenyl)acetamido]-3-[(1-ethyltetrazol-5-yl)thiomethyl]-3-cephem-4-carboxylic acid]
0.4 | ≤ 0.1 | 12.5 | 0.8 | ≤ 0.1 | 1.56 | CN(C)CCn1nnnc1SCC1=C(C(=O)O)N2C(=O)[C@@H](NC(=O)[C@H](NC(=O)c3coc4cc(O)c(O)cc4c3=O)c3ccc(O)cc3)[C@H]2SC1 [Example 21, 7β-[D-2-(6,7-Dihydroxychromone-3-carboxamido)-2-(4-hydroxyphenyl)acetamido]-3-{[1-(2-dimethylaminoethyl)tetrazol-5-yl]-thiomethyl}-3-cephem-4-carboxylic acid]
1.56 | ≤ 0.1 | 50 | 1.56 | 0.4 | 3.13 | O=C(O)C1=C(CSc2nnc[nH]2)CS[C@@H]2[C@H](NC(=O)[C@H](NC(=O)c3coc4cc(O)c(O)cc4c3=O)c3ccc(O)cc3)C(=O)N12 [Example 22]
0.4 | ≤ 0.1 | 12.5 | 0.8 | ≤ 0.1 | 3.13 | O=C(O)Cn1nnnc1SCC1=C(C(=O)O)N2C(=O)[C@@H](NC(=O)[C@H](NC(=O)c3coc4cc(O)c(O)cc4c3=O)c3ccc(O)cc3)[C@H]2SC1 [Example 23]

Compound | MIC (Escherichia coli NIHJ) [µg/mL] | MIC [1] [µg/mL] | MIC (Proteus morganii EP-14) [µg/mL] | MIC [2] [µg/mL] | MIC [3] [µg/mL] | MIC [4] [µg/mL]
CC(=O)Oc1cc2occ(C(=O)N[C@@H](C(=O)N[C@@H]3C(=O)N4C(C(=O)O)=C(CSc5nnc(C)s5)CS[C@H]34)c3ccccc3)c(=O)c2cc1OC(C)=O [Example 6, 7β-[D-2-(6,7-Diacetoxychromone-3-carboxamido)-2-phenylacetamido]-3-[(5-methyl-1,3-4-thiadiazol-2-yl)thiomethyl]-3-cephem-4-carboxylic acid] | 0.8 | ≤ 0.1 | 0.8 | 3.13 | ≤ 0.1 | 1.56
CC(=O)Oc1cc2occ(C(=O)N[C@@H](C(=O)N[C@@H]3C(=O)N4C(C(=O)O)=C(CSc5nnnn5C)CS[C@H]34)c3ccc(O)cc3)c(=O)c2cc1OC(C)=O [Example 7, 7β-[D-2-(6,7-Diacetoxychromone-3-carboxamido)-2-(4-hydroxyphenyl)acetamido]-3-[(1-methyltetrazol-5-yl)thiomethyl]-3-cephem-4-carboxylic acid] | ≤ 0.1 | ≤ 0.1 | 0.4 | 0.4 | ≤ 0.1 | 1.56
CC(=O)Oc1cc2occ(C(=O)N[C@@H](C(=O)N[C@@H]3C(=O)N4C(C(=O)O)=C(CSc5nnc(C)s5)CS[C@H]34)c3ccc(O)cc3)c(=O)c2cc1OC(C)=O [Example 8, 7β-[D-2-(6,7-Diacetoxychromone-3-carboxamido)-2-(4-hydroxyphenyl)acetamido]-3-[(5-methyl-1,3,4-thiadiazol-2-yl)thiomethyl]-3-cephem-4-carboxylic acid] | 0.8 | ≤ 0.1 | 1.56 | 1.56 | ≤ 0.1 | 3.13
CC(=O)Oc1ccc2c(=O)c(C(=O)N[C@@H](C(=O)N[C@@H]3C(=O)N4C(C(=O)O)=C(CSc5nnc(C)s5)CS[C@H]34)c3ccccc3)coc2c1OC(C)=O [Example 10, 7β-[D-2-(7,8-Diacetoxychromone-3-carboxamido)-2-phenyl-acetamido]-3-[(5-methyl-1,3,4-thiadiazol-2-yl)thiomethyl]-3-cephem-4-carboxylic acid] | 0.8 | ≤ 0.1 | 1.56 | 1.56 | 0.2 | 0.8
CC(=O)Oc1ccc2c(=O)c(C(=O)N[C@@H](C(=O)N[C@@H]3C(=O)N4C(C(=O)O)=C(CSc5nnnn5C)CS[C@H]34)c3ccc(O)cc3)coc2c1OC(C)=O [Example 11, 7β-[D-2-(7,8-Diacetoxychromone-3-carboxamido)-2-(4-hydroxyphenyl)acetamido] -3-[(1-methyltetrazol-5-yl)thiomethyl]-3-cephem-4-carboxylic acid] | 0.8 | ≤ 0.1 | 25 | 6.25 | 1.56 | 0.8
CC(=O)Oc1ccc2c(=O)c(C(=O)N[C@@H](C(=O)N[C@@H]3C(=O)N4C(C(=O)O)=C(CSc5nnc(C)s5)CS[C@H]34)c3ccc(O)cc3)coc2c1OC(C)=O [Example 12, 7β[D-2-(7,8-Diacetoxychromone-3-carboxamido)-2-(4-hydroxyphenyl)acetamido]-3-[(5-methyl-1,3,4-thiadiazol-2-yl)thiomethyl]-3-cephem-4-carboxylic acid] | 1.56 | ≤ 0.1 | 3.13 | 1.56 | 0.2 | 1.56
